Key:
[1] = system: TGF-β-stimulated SMAD3 phosphorylation in BEAS-2B cells; assay: Cellular ALK5 potency assay, inhibition of TGF-β stimulated pSMAD3 formation in BEAS-2B cells; type: cell-based; details: Homo sapiens, pSMAD3, TGF-β 10 ng/mL, read-out: BEAS2B pIC50 (converted)
Summary of the method: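 Human lung epithelial BEAS-2B cells were preincubated 1 h at 37 °C with compound in HBSS/HEPES/1% BSA, then stimulated 30 min with 10 ng/mL TGF-β. pSMAD3 in lysates was quantified by AlphaLISA relative to untreated stimulated cells; reported as pIC50.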

[2] = biological target: T1, recombinant human ALK5 (TGF-βR1) protein (Homo sapiens, UniProt P36897); assay: Biochemical ALK5 (TGF-βR1) assay to measure pKi (LANCE Ultra ULight kinase assay); details: apparent pKi, converted from pIC50 by Cheng-Prusoff
T1 construct: purchased Life Technologies PR9075A
T1 sequence (P36897 34-503): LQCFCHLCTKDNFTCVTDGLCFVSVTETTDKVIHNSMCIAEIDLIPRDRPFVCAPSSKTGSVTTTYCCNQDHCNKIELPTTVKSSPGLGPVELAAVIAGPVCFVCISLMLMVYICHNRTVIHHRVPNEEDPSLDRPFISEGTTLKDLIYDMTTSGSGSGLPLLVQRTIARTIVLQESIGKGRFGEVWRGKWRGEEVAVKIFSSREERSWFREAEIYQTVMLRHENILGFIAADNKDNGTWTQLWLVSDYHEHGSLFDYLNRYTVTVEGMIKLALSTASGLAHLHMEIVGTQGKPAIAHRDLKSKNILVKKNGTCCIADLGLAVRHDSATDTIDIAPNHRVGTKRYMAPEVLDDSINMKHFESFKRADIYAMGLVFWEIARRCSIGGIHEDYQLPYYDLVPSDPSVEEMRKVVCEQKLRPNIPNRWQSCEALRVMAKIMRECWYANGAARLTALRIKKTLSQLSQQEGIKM
Summary of the method: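 Dose-response series of each compound were preincubated with the kinase for 60 minutes at room temperature. Phosphorylation proceeded for 60 minutes at 37 °C after ATP addition, was quenched with EDTA, and was detected with a europium anti-phospho-Thr1342 antibody by TR-FRET; pKi was calculated from pIC50.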

Ki [2] [nM] | Structure (SMILES) | IC50 [1] [nM]
0.0398 to 0.316 | Cc1cccc(-c2nccc(Nc3ccnc(Nc4ccc(C(=O)O[C@@H]5CCN(C)C5)s4)n3)n2)n1 [Compound 52, [(3R)-1-methylpyrrolidin-3-yl] 5-[[4-[[2-(6-methyl-2-pyridyl)pyrimidin-4-yl]amino]pyrimidin-2-yl]amino]thiophene-2-carboxylate] | 25.1 to 158
0.0398 to 0.316 | Cc1cccc(-c2nccc(Nc3ccnc(Nc4ccc(CN5CCNC(C(=O)OCC(C)C)C5)cc4)n3)n2)n1 (centres unmarked) [Compound 523, isobutyl 4-[[4-[[4-[[2-(6-methyl-2-pyridyl)pyrimidin-4-yl]amino]pyrimidin-2-yl]amino]phenyl]methyl] piperazine-2-carboxylate] | ≤ 20
0.0398 to 0.316 | Cc1cccc(-c2nccc(Nc3ccnc(Nc4ccc(CN5CCC(C(=O)O[C@H]6CCN(C)C6)C5)cc4)n3)n2)n1 (stereo partly drawn) [Compound 161, [(3S)-1-methylpyrrolidin-3-yl] 1-[[4-[[4-[[2-(6-methyl-2-pyridyl)pyrimidin-4-yl]amino]pyrimidin-2-yl]amino]phenyl]methyl] pyrrolidine-3-carboxylate] | ≤ 20
0.0398 to 0.316 | Cc1cccc(-c2nccc(Nc3ccnc(Nc4ccc(F)c(CN5CCNCC5)c4)n3)n2)n1 [Compound 111, N2-[4-fluoro-3-(piperazin-1-ylmethyl)phenyl]-N4-[2-(6-methyl-2-pyridyl)pyrimidin-4-yl]pyrimidine-2,4-diamine] | 25.1 to 158
0.398 to 3.16 | Cc1cccc(-c2nccc(Nc3ccnc(Nc4cncc(C(=O)O[C@H]5CCNC5)c4)n3)n2)n1 [Compound 550, [(3S)-pyrrolidin-3-yl] 5-[[4-[[2-(6-methyl-2-pyridyl)pyrimidin-4-yl]amino]pyrimidin-2-yl]amino]pyridine-3-carboxylate] | 25.1 to 158
0.0398 to 0.316 | Cc1cccc(-c2nccc(Nc3ccnc(Nc4ccc(CN5CCC[C@H](C(=O)O[C@H]6CCN(C)C6)C5)cc4)n3)n2)n1 [Compound 210, [(3S)-1-methylpyrrolidin-3-yl] (3S)-1-[[4-[[4-[[2-(6-methyl-2-pyridyl)pyrimidin-4-yl]amino]pyrimidin-2-yl]amino]phenyl]methyl] piperidine-3-carboxylate] | ≤ 20
0.0398 to 0.316 | Cc1cccc(-c2nccc(Nc3ccnc(Nc4ccc(N5CCNCC5CC(=O)OCC(C)C)cc4)n3)n2)n1 (centres unmarked) [Compound 41, isobutyl 2-[1-[4-[[4-[[2-(6-methyl-2-pyridyl)pyrimidin-4-yl]amino]pyrimidin-2-yl]amino]phenyl]piperazin-2-yl]acetate] | 25.1 to 158
0.0398 to 0.316 | Cc1cccc(-c2nc(Nc3ccnc(Nc4ccc(NC5CCNC5)cc4)n3)c3cccn3n2)n1 (centres unmarked) [Compound 1041, N4-[2-(6-methyl-2-pyridyl)pyrrolo[2,1-f][1,2,4]triazin-4-yl]-N2-[4-(pyrrolidin-3-ylamino)phenyl]pyrimidine-2,4-diamine] | 25.1 to 158
0.0398 to 0.316 | Cc1cccc(-c2nccc(Nc3ccnc(Nc4csc(C(=O)O[C@H]5C[C@H](N)C5)c4)n3)n2)n1 [Compound 638, (3-aminocyclobutyl) 4-[[4-[[2-(6-methyl-2-pyridyl)pyrimidin-4-yl]amino]pyrimidin-2-yl]amino]thiophene-2-carboxylate] | 25.1 to 158
0.0398 to 0.316 | Cc1cccc(-c2nccc(Nc3ccnc(Nc4cc(NC(=O)C5CCNCC5)c5c(c4)OCCO5)n3)n2)n1 [Compound 419, N-[7-[[4-[[2-(6-methyl-2-pyridyl)pyrimidin-4-yl]amino]pyrimidin-2-yl]amino]-2,3-dihydro-1,4-benzodioxin-5-yl]piperidine-4-carboxamide] | 25.1 to 158
0.0398 to 0.316 | Cc1cccc(-c2nccc(Nc3ccnc(Nc4ccc(S(=O)(=O)N5CCOCC5)cc4)n3)n2)n1 [Compound 407, N4-[2-(6-methyl-2-pyridyl)pyrimidin-4-yl]-N2-(4-morpholinosulfonylphenyl) pyrimidine-2,4-diamine] | 25.1 to 158
0.0398 to 0.316 | Cc1cccc(-c2nccc(Nc3ccnc(Nc4ccc(N5CCN(C(=O)CSC(CCO)C(=O)O)CC5)cc4)n3)n2)n1 (centres unmarked) [Compound 37, 4-hydroxy-2-[2-[4-[4-[[4-[[2-(6-methyl-2-pyridyl)pyrimidin-4-yl]amino]pyrimidin-2-yl]amino]phenyl]piperazin-1-yl]-2-oxo-ethyl]sulfanyl-butanoic acid] | 200 to 1260
0.0398 to 0.316 | Cc1cccc(-c2nccc(Nc3ccnc(Nc4ccc(NC(=O)C5(CO)CNC5)cc4)n3)n2)n1 [Compound 209, 3-(hydroxymethyl)-N-(4-((4-((2-(6-methylpyridin-2-yl)pyrimidin-4-yl)amino)pyrimidin-2-yl)amino)phenyl)azetidine-3-carboxamide] | ≤ 20

The next lines start with the compound.

Structure (SMILES) | Ki [2] [nM] | IC50 [1] [nM]
Cc1cccc(-c2nc(Nc3ccnc(Nc4ccc(N5CCOCC5)cc4)n3)c3nn[nH]c3n2)n1 [Compound 340, N4-[5-(6-methyl-2-pyridyl)-3H-triazolo[4,5-d]pyrimidin-7-yl]-N2-(4-morpholinophenyl)pyrimidine-2,4-diamine] | 0.0398 to 0.316 | 200 to 1260
Cc1cccc(-c2nc(Nc3ccnc(Nc4cccc(C(=O)O)c4)n3)c3cccn3n2)n1 [Compound 1017, 3-[[4-[[2-(6-methyl-2-pyridyl)pyrrolo[2,1-f][1,2,4]triazin-4-yl]amino]pyrimidin-2-yl]amino]benzoic acid] | 0.398 to 3.16 | 200 to 1260
Cc1cccc(-c2nc(Nc3ccnc(Nc4ccc(C(=O)O)cc4)n3)c3cccn3n2)n1 [Compound 1021, 4-[[4-[[2-(6-methyl-2-pyridyl)pyrrolo[2,1-f][1,2,4]triazin-4-yl]amino]pyrimidin-2-yl]amino]benzoic acid] | 0.398 to 3.16 | 25.1 to 158
Cc1cccc(-c2nccc(Nc3ccnc(Nc4ccc(C(=O)O[C@H](C)C5CCNCC5)nc4)n3)n2)n1 [Compound 562, [(1R)-1-(4-piperidyl)ethyl] 5-[[4-[[2-(6-methyl-2-pyridyl)pyrimidin-4-yl]amino]pyrimidin-2-yl]amino]pyridine-2-carboxylate] | 0.0398 to 0.316 | 200 to 1260
Cc1cccc(-c2nccc(Nc3ccnc(Nc4csc(C(=O)OC[C@@H]5CCC[C@@H](N)C5)c4)n3)n2)n1 [Compound 635, [(1R,3R)-3-aminocyclohexyl]methyl 4-[[4-[[2-(6-methyl-2-pyridyl)pyrimidin-4-yl]amino]pyrimidin-2-yl]amino]thiophene-2-carboxylate] | 0.0398 to 0.316 | 25.1 to 158
Cc1cccc(-c2nccc(Nc3ccnc(Nc4csc(C(=O)OCC5CCNCC5)c4)n3)n2)n1 [Compound 607, 4-piperidylmethyl 4-[[4-[[2-(6-methyl-2-pyridyl)pyrimidin-4-yl]amino]pyrimidin-2-yl]amino]thiophene-2-carboxylate] | 0.0398 to 0.316 | 25.1 to 158
Cc1cccc(-c2nccc(Nc3ccnc(Nc4cncc(CN5CC(C(=O)OCC6CNC6)C5)c4)n3)n2)n1 [Compound 614, azetidin-3-ylmethyl 1-[[5-[[4-[[2-(6-methyl-2-pyridyl)pyrimidin-4-yl]amino]pyrimidin-2-yl]amino]-3-pyridyl]methyl]azetidine-3-carboxylate] | 0.0398 to 0.316 | 25.1 to 158
Cc1cccc(-c2nccc(Nc3ccnc(Nc4ccc(C(=O)NCC5CNC5)cc4)n3)n2)n1 [Compound 92, N-(azetidin-3-ylmethyl)-4-[[4-[[2-(6-methyl-2-pyridyl)pyrimidin-4-yl]amino]pyrimidin-2-yl]amino]benzamide] | 0.0398 to 0.316 | ≤ 20
COC(=O)[C@@H]1CN(Cc2ccc(Nc3nccc(Nc4ccnc(-c5cccc(C)n5)n4)n3)cc2)CCN1 [Compound 254, methyl (2S)-4-[[4-[[4-[[2-(6-methyl-2-pyridyl)pyrimidin-4-yl]amino]pyrimidin-2-yl]amino]phenyl]methyl] piperazine-2-carboxylate] | 0.0398 to 0.316 | ≤ 20
Cc1cccc(-c2nccc(Nc3ccnc(Nc4csc(CN5CCNCC5)c4)n3)n2)n1 [Compound 94, N4-(2-(6-methylpyridin-2-yl)pyrimidin-4-yl)-N2-(5-(piperazin-1-ylmethyl)thiophen-3-yl)pyrimidine-2,4-diamine] | ≤ 0.0316 | ≤ 20
Cc1cccc(-c2nccc(Nc3ccnc(Nc4ccc(C(=O)OCCN5CCN6CCCC6C5)nc4)n3)n2)n1 (centres unmarked) [Compound 613, 2-(3,4,6,7,8,8a-hexahydro-1H-pyrrolo[1,2-a]pyrazin-2-yl)ethyl 5-[[4-[[2-(6-methyl-2-pyridyl)pyrimidin-4-yl]amino]pyrimidin-2-yl]amino]pyridine-2-carboxylate] | 0.398 to 3.16 | 25.1 to 158
COC(=O)c1cc(Nc2ccnc(Nc3ccc(N4CCN(C)CC4)cc3)n2)nc(-c2cccc(C)n2)n1 [Compound 1010, methyl 6-[[2-[4-(4-methylpiperazin-1-yl)anilino]pyrimidin-4-yl]amino]-2-(6-methyl-2-pyridyl)pyrimidine-4-carboxylate] | 0.0398 to 0.316 | 200 to 1260

Source: US20230399312A1, “SUBSTITUTED PYRIMIDINES AND METHODS OF USE” (THERAVANCE BIOPHARMA R&D IP, LLC, priority 2020, published 2023)
